{"source": "patent US12257251B2", "about": "“Use of FAK inhibitor in preparation of drug for treating tumors having NRAS mutation” (INXMED (NANJING) CO., LTD., priority 2019, dated 2025)", "key": {"[1]": {"test": "Body weight change (tolerability) in the KYSE-270 xenograft study", "type": "in vivo, mouse", "description": "(§1) 1.7. Monitoring tumor growth and side effects: Tumor diameters were measured with calipers three times a week. The volume [mm^3] of each tumor was calculated according to the equation “tumor volume=length×diameter^2×π/6”. To monitor the side effects of the treatment, the mice were checked daily for abnormalities and their body weights were measured three times a week. For ethical reasons, animals with tumors larger than 1.5 cm in diameter, ulcerated tumors, or 20% body weight loss were euthanized.\n(§2) The wilcoxon test was used for comparison. For body weight, the percent change relative to initial body weight on day 1 was used as the target variable for statistical analysis. The number of animals, and the median, minimum and maximum weight changes in each group were calculated.\n(§3) One-sided test to compare all treatment groups with control group was performed for observing: • reduction in tumor volume (inhibition of tumor growth, efficacy parameter) and • reduction in weight changes (weight loss, tolerance parameters).\nWithin each subtopic, p-values for the efficacy parameter were compared and adjusted for multiple times according to Bonferroni-Holm. The p-value for the tolerance parameter was kept constant so as not to overlook possible side effects. Significance level was fixed at α=5%. A p-value (adjusted) of less than 0.05 was considered to show a statistically significant difference between groups, and 0.05≤p-value<0.10 was considered as an indicative difference. Statistical evaluations were performed using the SAS software package version 9.4 (SAS Institute Inc., Cary NC, USA)."}, "[2]": {"test_system": "human esophageal cancer cell line KYSE-270", "test": "Subcutaneous xenograft of human esophageal cancer cell line KYSE-270 in NMRI nude mice: tumor growth", "type": "in vivo, mouse", "conditions": "for Tumor shrinkage [x/y]: Paclitaxel 10 mg/Kg q7d", "description": "1.1. Model: Subcutaneous xenograft of human esophageal cancer cell line KYSE-270 in NMRI nude mice.\n1.3. Cells: KYSE-270 is an esophageal cancer cell line (Public Health England, catalog number: 94072021). Cells were cultured in T175 tissue culture flasks containing 5% CO2 at 37° C. The medium was RPMI 1640+HAM F12 (1:1) supplemented with 2% FCS and 2 mM Glutamax. Passage was performed three times a week at a ratio of 1:2.\n1.4. Mice: Mice were 8 to 10 week old female mice (BomTac: NMRI-Foxn1^nu) purchased from Taconic®, Denmark. Upon arrival in the animal room, the mice were allowed to acclimate for at least 5 days before being used for assay. The animals were housed under standard conditions (temperature: 21.5±1.5° C., humidity: 55+10%), 7 to 10 mice for each group. A standard diet and autoclaved tap water were provided for ad libitum feeding. A subcutaneous microchip implanted under isoflurane anesthesia was used to identify each mouse.\n1.5. Random establishment of tumors: To establish subcutaneous tumors, KYSE-270 cells were harvested by centrifugation, washed and resuspended in PBS+5% FCS at a concentration of 5×10^7 cells/ml. Then 100 l of cell suspension containing 5×10^6 cells was injected subcutaneously into the right flank of mice (1 site per mouse). When tumors were well established and reached a volume of 94 to 252 mm^3, mice were randomly assigned to the treatment group and the control group (13 days after cell injection).\n1.6. Administration: BI 853520 was suspended in 0.5% hydroxyethyl cellulose, which was administered intragastrically through gavage needle every day, and the dosage was 10 mL/Kg body weight. Paclitaxel was dissolved in saline (0.9% NaCl), which was administered intravenously in a volume of 10 ml/kg body weight. The suspension of BI853520 could be used for up to 7 days. Paclitaxel solution was stored at 6° C. and used for up to 14 days.\nas §1\nStatistical assessment of tumor volume and body weight on day 13 was performed. Animal number 1 (control group) was excluded from the statistical evaluation because of weight loss and had to be euthanized early (day 9). Measured tumor volume was used as the target variable in the statistical analysis. The number of animals and the median, minimum and maximum tumor volumes in each group were calculated. For a quick overview of possible treatment effects, the median tumor volume for each treatment group T and the median tumor volume for the control group C were used to calculate TGI: TGI=100×[(Cd−C1)−(Td−T1)]/(Cd−C1) • wherein, C1, T1=median tumor volume in control and treatment groups at the start of the assay (day 1). • Cd, Td=median tumor volume in control and treatment groups at the end of the assay (day 13).\nas §2, §3\nWithin each subtopic, p-values for the efficacy parameter were compared and adjusted for multiple times according to Bonferroni-Holm. The p-value for the tolerance parameter was kept constant so as not to overlook possible side effects. […]"}}}
{"smiles": "CC(=O)O[C@H]1C(=O)[C@@]2(C)[C@H]([C@H](OC(=O)c3ccccc3)[C@]3(O)C[C@H](OC(=O)[C@H](O)[C@@H](NC(=O)c4ccccc4)c4ccccc4)C(C)=C1C3(C)C)[C@]1(OC(C)=O)CO[C@@H]1C[C@@H]2O", "note": "[Paclitaxel, reference compound]", "values": [{"measurement": "Change in median weight", "setting": "[1]; Paclitaxel 10 mg/Kg q7d, day 13 versus day 1", "value": "−9.7", "unit": "%"}, {"measurement": "Reduction in the median body weight", "setting": "[1]; Paclitaxel 10 mg/kg once a week, day 13, given as a decrease", "value": 9.7, "unit": "%"}, {"measurement": "Tumor shrinkage [x/y]", "setting": "[2]; day 13", "value": "0/7"}, {"measurement": "Tumor shrinkage [x/y]", "setting": "[2]; day 13, listed as paclitaxel", "value": "none"}, {"measurement": "TGI", "setting": "[2]; Paclitaxel 10 mg/Kg q7d i.v., day 13", "value": 2, "unit": "%"}, {"measurement": "Median tumor volume", "setting": "[2]; paclitaxel 10 mg/kg once a week, day 13 (start 190 mm^3)", "value": 1033, "unit": "mm^3"}]}
